Reference: patent US5994336A, “Method of inhibiting proliferation of cells by administering an aminosterol compound” (priority 1995, dated 1999)
“Also recorded” adds a separate entry of the source.

Tests used:
NHE1β = details: nucleated erythrocyte isoform; cited from earlier work
rabbit NHE3 [1] = target: T1, rabbit NHE3 (Oryctolagus cuniculus, UniProt P26432); details: existing agents such as amiloride; cited from earlier work
T1 construct: BCECF internal pH recovery

rabbit NHE3 [2] = target: T1, rabbit NHE3; format: cell-based; details: 10 μg/ml, acid preloaded; FIG. 10
vitelline capillaries = experiment: Chick embryo vitelline capillary regression assay; format: in vivo
Procedure: Using the chick embryo vitelline capillaries assay, compounds were tested for their ability to induce capillary regression. Each compound was applied in 0.1 ml of 15% Ficol 400 and PBS onto the embryo, and vascular regression was assessed after 60 minutes.
The 3-day chick embryo consists of an embryonic disc from which numerous vessels emerge and return, forming a "FIG. 8"-shaped structure--the embryo in the center with vascular loops extending outward over both poles. […] Following a lag period of around 15 minutes, the constriction of continuity between capillary and secondary vessels, generally on the "venous" side, was observed. Continued pulsatile blood flow progressed, resulting in a "swelling" of the blind tube, followed by a pinching off of the remaining connection and formation of an enclosed vascular sac resembling a "blood island." This process progressed until only the largest vessels remained intact.

[3] = tested on: Xenopus tadpole, stage 59-60; experiment: Tadpole assay; format: in vivo, Xenopus laevis; details: 10 μg/ml; for pharmacological response in tadpole (words): stage 59-60
Description: For example, substances that destroy all of the animal's epithelium, both adult and embryonic, could be regarded as toxic.
The volume of liquid is sufficient for the animal to swim freely and drink from the solution. […] If the volume of liquid is not sufficient to permit oral intake, the effects that are observed would result from absorption through the surface epithelium.
In another embodiment of this assay, a solution of a compound in water can be injected directly into the abdomen of the animal using standard techniques.
After an amount of time, typically about 60 minutes, the occlusion of blood flow through capillaries in the tadpole's tail are observed under an inverted microscope at a magnification of roughly 100×.
In the assay, each of the steroids was dissolved in 100 ml of distilled water at a concentration of 10 μg/ml. Stage 59-60 Xenopus tadpoles were introduced and evaluated by light microscopy and gross observation 1 hour later.

[4] = tested on: PHA-stimulated human lymphocytes; experiment: Inhibition of mitogen (PHA)-stimulated growth of human T-cells; format: cell-based
Description: Results are tabulated below.

[5] = tested on: Human colon carcinoma HT29; experiment: Growth inhibition in vitro (Table 7); format: cell-based; details: 10 μg/ml
Description: (§1) As set forth in Table 7 below, all malignant tumors evaluated in tissue culture, endothelial cells and vascular smooth muscle cells were sensitive to inhibition. Thus, compound 1436 has application in the control of growth factor dependent proliferation of many types of tissue.

[6] = tested on: Human colon carcinoma SW948; experiment: Growth inhibition in vitro (Table 7); format: cell-based; details: 10 μg/ml
Description: as §1

[7] = tested on: Human coronary artery smooth muscle cells; experiment: Growth inhibition in vitro (Table 7); format: cell-based; details: 10 μg/ml
Description: as §1

Human melanoma WM 1617 = experiment: Growth inhibition in vitro (Table 7); format: cell-based; details: 10 μg/ml
Description: as §1

[8] = tested on: Human microvascular endothelial cells; experiment: Growth inhibition in vitro (Table 7); format: cell-based; details: 10 μg/ml
Description: as §1

Lewis lung carcinoma = experiment: Growth inhibition in vitro (Table 7); format: cell-based; details: 10 μg/ml
Description: as §1

Murine B16 melanoma = experiment: Growth inhibition in vitro (Table 7); format: cell-based; details: 10 μg/ml
Description: as §1

Murine L1210 leukemia = experiment: Growth inhibition in vitro (Table 7); format: cell-based; details: 10 μg/ml
Description: as §1

[9] = tested on: bovine pulmonary endothelial cells; experiment: Growth inhibition in vitro (Table 7); format: cell-based; details: 10 μg/ml
Description: as §1

[10] = tested on: human umbilical venous endothelial cells; experiment: Growth inhibition in vitro (Table 7); format: cell-based; details: 10 μg/ml
Description: as §1

[11] = tested on: Human ovarian carcinoma SKOV3; experiment: Growth inhibition in vitro (Table 7); format: cell-based; details: 10 μg/ml
Procedure: as §1
Using the assay described above, the anticancer effects of compound 1437 against several cancer lines was assessed.

B16 melanoma [12] = experiment: Synergistic inhibition of tumor growth, B16 melanoma model; format: in vivo, mouse
Procedure: Based on the idea that tumor growth involves both the clonal expansion of a malignant cell along with the development of a supporting vascular supply, a combination of compound 1436 with squalamine was tested to determine whether it would achieve a synergistic effect on solid tumor growth. This concept was evaluated in the B16 melanoma model.
Animals were implanted with B16 melanoma followed by treatment with compound 1436 or 1256 administered in a combined schedule or separately. […] Thus, a combination of these two compounds achieves a therapeutic benefit in tumors dependent on neovascularization that may prevent metastatic spread.

[13] = Effect on fasting blood glucose in mice; format: in vivo, mouse; details: i.v.
Procedure: To study the effect of steroid administrator or the NHE responsible for secretion of insulin, several of the aminosterols from shark liver were administered to fasting mice. Male CD-1 mice were assigned to one of four treatment groups. Whole blood glucose was tested using glucometer (Lifescan Glucometer II and One Touch test strips). Statistical analysis was via one-way analysis of variance (ANOVA) followed by subsequent Bonferonni's t-test.

[14] = tested on: human coronary artery smooth muscle; experiment: Proliferation of human coronary artery smooth muscle in vitro; format: cell-based
Description: Aminosterols of the invention may also have utility in inhibiting the growth factor mediated proliferation of smooth muscle within the artery. Following coronary angioplasty, reocclusion commonly occurs, secondary to reparative proliferation of the vascular smooth muscle within the wall of the surgically manipulated blood vessel. This process generally takes place over the course of 7-10 days. To evaluate whether an agent could prevent the growth factor mediated proliferation of smooth muscle within the artery, compound 1436 was evaluated in vitro for its effect on the proliferation of human coronary artery smooth muscle. Results for compound 1436 are shown in FIG. 13, and those for squalamine are shown in FIG. 14, with FIG. 15 being a composite logarithmic plot.

[15] = Effect on growth and weight gain of C57B mice; format: in vivo, mouse
Procedure: Animals were dosed QTD (i.p.) starting on Day 1. […] Animals receiving 5 mg/kg QTD experienced about a 50% reduction in growth, compared to untreated controls, while animals receiving 1 mg/kg QTD were affected by about 10%. […] They appeared very much like hypophysectamized animals might appear.

[16] = Effect on arterial resistance in the rat after i.v. administration; format: in vivo
Procedure: A 200-g rat was catheterized in the right carotid artery, and the compound was introduced over a ten-second period to a total dosage of 5 mg/kg. Within 30 seconds, the mean arterial pressure had fallen from about 100 mm Hg to about 70 mm Hg, with a marked reduction in pulse pressure from about 40 mm to about 10 mm. […] If cardiac output was basically unaffected, reduction in blood pressure would have resulted principally from a reduction in system resistance.
At that time, 40 μg of noradrenaline was introduced.

[17] = tested on: heart of a juvenile Xenopus laevis frog; experiment: Persistence of beating of isolated frog heart (ischemia); details: 10 μg/ml, adrenaline 50 μg/ml, room temperature; about one hour without compound
Procedure: To determine if compound 1436 has such utility, the following experiment was performed. The heart of a juvenile Xenopus laevis frog was dissected from the living animal. The heart was placed into a Petri dish containing Krebs-Ringer buffer with adrenaline 50 μg/ml, and examined with the naked eye. At room temperature, the heart continued beating in a coordinated fashion (atrial beat followed by ventricular beat) for about one hour. In the presence of 10 μg/ml of compound 1436, spontaneous beating persisted up to 24 hours.

[18] = tested on: L1210 lymphoblastic leukemia; experiment: Survival of mice bearing L1210 leukemia
human melanoma = experiment: Effect on growth of human melanoma (method of Baker et al.); format: cell-based; details: FIG. 17A
[19] = Hematological profile of L1210-inoculated mice
Description: C57B mice were inoculated with L1210 lymphoblastic leukemia cells at an inoculum that causes leukemia in 100% of animals.

B16 melanoma [20] = experiment: Suppression of growth of B16 melanoma in C57B mice; format: in vivo, mouse; details: subcutaneous; FIG. 6
Procedure: The growth of B16 melanoma in C57B mice is dependent upon neovascularization.
Using the growth of B16 melanoma cells in C57B mice, a recognized model for the evaluation of inhibitors of angiogenesis on the growth of cancers, the effects of subcutaneous, intraperitoneal and oral administration of squalamine were evaluated.

NHE = experiment: Comparison of compound 319 with squalamine
Description: Moreover, other aminosterols have shown anti-angiogenic activity. Compounds were subjected to a various assays, including the chick embryo capillary regression assay, the tadpole assay, the assay for inhibition of endothelial cord formation, and the assay for direct inhibition of NHE, as described above, to determine their utilities. As evident from the above data, correlation among the results from the chick, tadpole and in vitro inhibition of endothelial cell cord formation assays is excellent.
Through the application of these assays, compound 319 emerged as an attractive alternative to squalamine. […] Further properties of compound 319 are discussed below.

T1 sequence (P26432 30-832): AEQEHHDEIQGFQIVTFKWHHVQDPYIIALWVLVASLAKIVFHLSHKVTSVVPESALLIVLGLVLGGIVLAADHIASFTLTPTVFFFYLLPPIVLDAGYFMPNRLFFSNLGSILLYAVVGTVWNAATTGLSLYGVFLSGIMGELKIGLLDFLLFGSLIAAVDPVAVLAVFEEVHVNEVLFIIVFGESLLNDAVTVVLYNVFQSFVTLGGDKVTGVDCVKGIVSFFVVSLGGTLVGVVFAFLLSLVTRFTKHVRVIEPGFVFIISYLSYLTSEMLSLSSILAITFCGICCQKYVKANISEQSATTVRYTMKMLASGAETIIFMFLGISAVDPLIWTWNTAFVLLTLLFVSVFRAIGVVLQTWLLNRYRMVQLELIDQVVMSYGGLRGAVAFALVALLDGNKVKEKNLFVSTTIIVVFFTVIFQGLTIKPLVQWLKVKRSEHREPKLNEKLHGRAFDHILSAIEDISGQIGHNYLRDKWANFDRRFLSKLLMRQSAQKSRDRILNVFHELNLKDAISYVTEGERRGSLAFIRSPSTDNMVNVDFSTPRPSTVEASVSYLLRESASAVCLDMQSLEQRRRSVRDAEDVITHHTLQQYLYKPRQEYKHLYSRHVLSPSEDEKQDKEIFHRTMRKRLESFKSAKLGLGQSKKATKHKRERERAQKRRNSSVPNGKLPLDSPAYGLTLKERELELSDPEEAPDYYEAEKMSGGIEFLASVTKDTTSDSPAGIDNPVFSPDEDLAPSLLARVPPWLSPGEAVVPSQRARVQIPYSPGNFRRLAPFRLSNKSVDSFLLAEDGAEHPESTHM

## N=C(N)NC(=O)c1nc(Cl)c(N)nc1N [Amiloride]
NHE1β
  inhibition of NHE1β: inhibited by high concentrations
Rabbit NHE3 [1]
  effect on Vmax of NHE3 (existing agents): affected only Vmax

## CC(C)[C@@H](CC[C@@H](C)[C@H]1CC[C@H]2[C@@H]3[C@H](O)C[C@H]4C[C@@H](NCCCNCCCCNCCCN)CC[C@]4(C)[C@H]3CC[C@]12C)OS(=O)(=O)O [Compound 1436]
Rabbit NHE3 [2]
  inhibition of rabbit NHE3: found to inhibit rabbit NHE3
Vitelline capillaries
  activity on vitelline capillaries: causes vitelline capillary regression with about the same potency as squalamine
[3]
  tissues or functions not affected in tadpole: No effects are observed on epithelial cell integrity, vascular flow, erythrocyte volume, tissue integrity, muscle fiber striation, or GI tract activity
  pharmacological response in tadpole (words): Gradual reduction in overall activity. Heart beat remained strong, suggesting nervous system depression. Melanocytes over head and tail began to swell, first exhibiting visibly distinct nuclei, followed by rupture into fragments
[3]; listed as compound 1436
  pharmacological response in tadpole (words): common vascular occlusive effect; also recorded: dramatic disruption of melanocytes over its head, trunk, and tail, along with depression of its nervous system
[4]
  inhibition of blast transformation: inhibited blast transformation most potently
[5]
  inhibition in vitro: INHIBITED
[6]
  inhibition in vitro: INHIBITED
[7]
  inhibition in vitro: INHIBITED
Human melanoma WM 1617
  inhibition in vitro: INHIBITED
[8]
  inhibition in vitro: INHIBITED
Lewis lung carcinoma
  inhibition in vitro: INHIBITED
Murine B16 melanoma
  inhibition in vitro: INHIBITED
Murine L1210 leukemia
  inhibition in vitro: INHIBITED
[9]
  inhibition in vitro: INHIBITED
[10]
  inhibition in vitro: INHIBITED
[11]
  inhibition in vitro: INHIBITED
B16 melanoma [12]; compound 1436 alone in a tolerable schedule
  effect compared with combination: Neither administration of squalamine at 15 mg/kg/day nor compound 1436 alone in a tolerable schedule could achieve this effect
B16 melanoma [12]; compound 1436 alone, 10 mg/kg/every 3 days, FIG. 12
  impact on tumor volume: no significant impact on tumor volume
[13]
  blood glucose effect: caused hyperglycemia in mice
[14]; FIG. 15
  suppression of growth in vitro: suppress in vitro the growth of human coronary artery smooth muscle
[14]; about 11 μg/ml
  viability at quiescent concentration: without loss of viability
[15]; 5 mg/kg QTD i.p., compared to untreated controls
  reduction in growth: ~50%
[15]; 10 mg/kg QTD i.p.
  reduction in growth: almost completely inhibited
[15]; i.p.
  apparent health of treated animals: all were active, normally proportioned, not-cachectic, and in excellent apparent clinical health
[16]; 40 μg noradrenaline at 30 minutes
  reversibility: readily reversible
[16]; 5 mg/kg i.v., within 30 seconds, from about 40 mm
  pulse pressure after dose: about 10 mm
[16]; 5 mg/kg i.v., within 30 seconds, from about 100 mm Hg
  mean arterial pressure after dose: about 70 mm Hg
[16]; followed for 30 minutes
  persistence of pressure effect: without significant change
[17]
  persistence of spontaneous beating: up to 24 hours
[18]; highest dose, 10 mg/kg every 3 days i.p., FIG. 11
  survival: significant prolongation of life
[18]; mouse, in vivo
  toxicity in leukemic mice: without unfavorable toxicity

## CC(C)CCC[C@@H](C)[C@H]1CC[C@H]2[C@@H]3CC[C@H]4C[C@@H](NCCCNCCCCNCCCN)CC[C@]4(C)[C@H]3CC[C@]12C [Compound 353]
Vitelline capillaries
  activity on vitelline capillaries: no effect on the chick embryo capillary bed
[3]
  pharmacological response in tadpole (words): effects like those produced by compound 1436
Human melanoma
  time course of effect on growth of melanoma: most pronounced over 48 hours, with less of an effect noted within the first 12 hours of incubation

## N.N.[Cl][Pt][Cl] [Cisplatin]
[19]
  hematological profile: profound anemia by day 28

## C[C@H](CCC(=O)O)[C@H]1CC[C@H]2[C@@H]3CC[C@H]4C[C@@H](NCCCNCCCCN)CC[C@]4(C)[C@H]3CC[C@]12C [Compound 319]
Vitelline capillaries
  activity on vitelline capillaries: especially active
[3]
  pharmacological response in tadpole (words): common vascular occlusive effect
B16 melanoma [20]
  control of B16 melanoma: control of B16 in C57B mice to an extent almost comparable to squalamine
NHE
  potency as an NHE inhibitor compared with squalamine: superior to squalamine
